Where a SMILES comes first, the peptide text is derived from it. [ ]: non-standard residue; d: D form. Arg(Me) = CNC(=N)NCCC[C@H](N)C(=O)O; d4Pal = N[C@H](Cc1ccncc1)C(=O)O; azaGly = NNC(=O)O
What was measured:
Type in all cases: toxicity, cell-based
Fibroblast = test: Incucyte cell viability with human fibroblast; details: 10 µM, compound concentration 10 uM
U2OS = test: Incucyte cell viability with U2OS; details: human, 10 µM, compound concentration 10 uM
HEK-293T = test: Incucyte cell viability with HEK293T; details: human, 10 µM, compound concentration 10 uM
[1] = 0 h, replicate number 1, timepoint 0 hours
[2] = 6 h, replicate number 1, timepoint 6 hours
[3] = 12 h, replicate number 1, timepoint 12 hours
[4] = 18 h, replicate number 1, timepoint 18 hours
[5] = 24 h, replicate number 1, timepoint 24 hours
[6] = 0 h, replicate number 2, timepoint 0 hours
[7] = 6 h, replicate number 2, timepoint 6 hours
[8] = 12 h, replicate number 2, timepoint 12 hours
[9] = 18 h, replicate number 2, timepoint 18 hours
[10] = 24 h, replicate number 2, timepoint 24 hours
Also: filed as whole numbers so only -1 and 0 and 1 occur.

## CNC(=N)NCCC[C@H](NC(=O)[C@H](CC(C)C)NC(=O)NNC(=O)[C@H](Cc1ccccc1)NC(=O)[C@H](CO)NC(=O)[C@H](CC(N)=O)NC(=O)[C@@H](Cc1ccncc1)NC(=O)[C@H](N)Cc1ccc(O)cc1)C(=O)N[C@@H](Cc1ccccc1)C(N)=O [KISS1-305] (H-[dY][d4Pal]NSF[azaGly]L[Arg(Me)]F-NH2)
Fibroblast; [1]
  Growth Rate: 0
Fibroblast; [2]
  Growth Rate: 0
Fibroblast; [3]
  Growth Rate: 0
Fibroblast; [4]
  Growth Rate: 0
Fibroblast; [5]
  Growth Rate: 0
U2OS; [6]
  Growth Rate: 0
U2OS; [7]
  Growth Rate: 1
U2OS; [3]
  Growth Rate: 1
U2OS; [4]
  Growth Rate: 0
U2OS; [5]
  Growth Rate: 0
HEK-293T; [1]
  Growth Rate: 0
HEK-293T; [2]
  Growth Rate: 0
HEK-293T; [3]
  Growth Rate: 1
HEK-293T; [8]
  Growth Rate: 0
HEK-293T; [4]
  Growth Rate: 0
HEK-293T; [5]
  Growth Rate: 0

## CCc1cc(C(C)=O)c(O)cc1OCCCCCC(C)(C)c1nn[nH]n1 [LY-255283]
Fibroblast; [1]
  Growth Rate: 0
Fibroblast; [2]
  Growth Rate: 0
Fibroblast; [3]
  Growth Rate: 0
Fibroblast; [4]
  Growth Rate: 0
Fibroblast; [5]
  Growth Rate: 0
U2OS; [1]
  Growth Rate: 0
U2OS; [7]
  Growth Rate: 0
U2OS; [3]
  Growth Rate: 1
U2OS; [8]
  Growth Rate: 0
U2OS; [4]
  Growth Rate: 1
U2OS; [9]
  Growth Rate: 0
U2OS; [5]
  Growth Rate: 1
U2OS; [10]
  Growth Rate: 0
HEK-293T; [1]
  Growth Rate: 0
HEK-293T; [2]
  Growth Rate: 1
HEK-293T; [7]
  Growth Rate: 0
HEK-293T; [3]
  Growth Rate: 0
HEK-293T; [4]
  Growth Rate: 0
HEK-293T; [5]
  Growth Rate: 0
HEK-293T; [10]
  Growth Rate: 1

## COc1ccc(CNC(=O)c2cc(-c3cncc(Cl)c3)cnc2-c2ccccn2)nc1OC [MK-1064]
Fibroblast; [1]
  Growth Rate: 0
Fibroblast; [2]
  Growth Rate: 0
Fibroblast; [3]
  Growth Rate: 0
Fibroblast; [4]
  Growth Rate: 1
Fibroblast; [5]
  Growth Rate: 0
Fibroblast; [10]
  Growth Rate: 1
U2OS; [1]
  Growth Rate: 0
U2OS; [7]
  Growth Rate: 0
U2OS; [3]
  Growth Rate: 1
U2OS; [4]
  Growth Rate: 1
U2OS; [9]
  Growth Rate: 0
U2OS; [5]
  Growth Rate: 1
HEK-293T; [1]
  Growth Rate: 0
HEK-293T; [2]
  Growth Rate: 0
HEK-293T; [3]
  Growth Rate: 1
HEK-293T; [8]
  Growth Rate: 0
HEK-293T; [4]
  Growth Rate: 0
HEK-293T; [5]
  Growth Rate: 1
HEK-293T; [10]
  Growth Rate: 0

## CN([C@@H]1CCc2c(CC(=O)O)c3ccccc3n2C1)S(=O)(=O)c1ccc(F)cc1 [MK-7246]
Fibroblast; [1]
  Growth Rate: 0
Fibroblast; [2]
  Growth Rate: 0
Fibroblast; [3]
  Growth Rate: 0
Fibroblast; [8]
  Growth Rate: 1
Fibroblast; [4]
  Growth Rate: 0
Fibroblast; [9]
  Growth Rate: 1
Fibroblast; [5]
  Growth Rate: 0
U2OS; [1]
  Growth Rate: 0
U2OS; [7]
  Growth Rate: 0
U2OS; [3]
  Growth Rate: 1
U2OS; [4]
  Growth Rate: 1
U2OS; [5]
  Growth Rate: 0
U2OS; [10]
  Growth Rate: 1
HEK-293T; [1]
  Growth Rate: 0
HEK-293T; [2]
  Growth Rate: 0
HEK-293T; [7]
  Growth Rate: 1
HEK-293T; [3]
  Growth Rate: 0
HEK-293T; [4]
  Growth Rate: 0
HEK-293T; [9]
  Growth Rate: 1
HEK-293T; [5]
  Growth Rate: 0
HEK-293T; [10]
  Growth Rate: 1

## Cc1cc(Nc2nccc(C)n2)cc(-c2cnc([C@@]3(O)CC[C@H](C(=O)O)C(C)(C)C3)s2)c1 [MRL-SYKi]
Fibroblast; [6]
  Growth Rate: 1
Fibroblast; [2]
  Growth Rate: 0
Fibroblast; [3]
  Growth Rate: 0
Fibroblast; [4]
  Growth Rate: 0
Fibroblast; [5]
  Growth Rate: 1
Fibroblast; [10]
  Growth Rate: 0
U2OS; [1]
  Growth Rate: 0
U2OS; [2]
  Growth Rate: 0
U2OS; [3]
  Growth Rate: 0
U2OS; [4]
  Growth Rate: 0
U2OS; [9]
  Growth Rate: 1
U2OS; [5]
  Growth Rate: 0
HEK-293T; [2]
  Growth Rate: 0
HEK-293T; [3]
  Growth Rate: 0
HEK-293T; [4]
  Growth Rate: 0
HEK-293T; [5]
  Growth Rate: 0

## CC(=O)Nc1c(C(C)=O)c(=O)n(C)c2nc(-c3ccc(Cl)cc3Cl)c(-c3ccc(Cl)cc3)cc12 [NAPHTHYRIDINONE]
Fibroblast; [1]
  Growth Rate: 0
Fibroblast; [2]
  Growth Rate: 1
Fibroblast; [7]
  Growth Rate: 0
Fibroblast; [3]
  Growth Rate: 0
Fibroblast; [4]
  Growth Rate: 0
Fibroblast; [5]
  Growth Rate: 0
U2OS; [6]
  Growth Rate: 0
U2OS; [7]
  Growth Rate: 1
U2OS; [3]
  Growth Rate: 0
U2OS; [4]
  Growth Rate: 0
U2OS; [9]
  Growth Rate: 1
U2OS; [5]
  Growth Rate: 0
U2OS; [10]
  Growth Rate: 1
HEK-293T; [1]
  Growth Rate: 0
HEK-293T; [2]
  Growth Rate: 0
HEK-293T; [7]
  Growth Rate: 1
HEK-293T; [3]
  Growth Rate: 0
HEK-293T; [4]
  Growth Rate: 0
HEK-293T; [5]
  Growth Rate: 0

## Nc1nc(NCc2ccccc2)nc(-c2ccccc2CO)n1 [Ogerin]
Fibroblast; [1]
  Growth Rate: 1
Fibroblast; [2]
  Growth Rate: 0
Fibroblast; [3]
  Growth Rate: 0
Fibroblast; [4]
  Growth Rate: 0
Fibroblast; [5]
  Growth Rate: 0
U2OS; [6]
  Growth Rate: 0
U2OS; [7]
  Growth Rate: 1
U2OS; [3]
  Growth Rate: 1
U2OS; [4]
  Growth Rate: 1
U2OS; [5]
  Growth Rate: 1
HEK-293T; [1]
  Growth Rate: 1
HEK-293T; [6]
  Growth Rate: 0
HEK-293T; [2]
  Growth Rate: 0
HEK-293T; [7]
  Growth Rate: 1
HEK-293T; [3]
  Growth Rate: 1
HEK-293T; [4]
  Growth Rate: 1
HEK-293T; [5]
  Growth Rate: 0
HEK-293T; [10]
  Growth Rate: 1

## COc1ccc(C2(O)OC(=O)C(c3ccc4c(c3)OCO4)=C2Cc2cc(OC)c(OC)c(OC)c2)cc1 (stereo not given) [PD-156707]
Fibroblast; [1]
  Growth Rate: 1
Fibroblast; [6]
  Growth Rate: 0
Fibroblast; [2]
  Growth Rate: 0
Fibroblast; [3]
  Growth Rate: 0
Fibroblast; [4]
  Growth Rate: 0
Fibroblast; [9]
  Growth Rate: 1
Fibroblast; [5]
  Growth Rate: 0
Fibroblast; [10]
  Growth Rate: 1
U2OS; [6]
  Growth Rate: 1
U2OS; [2]
  Growth Rate: 1
U2OS; [3]
  Growth Rate: 0
U2OS; [8]
  Growth Rate: 1
U2OS; [4]
  Growth Rate: 0
U2OS; [9]
  Growth Rate: 1
U2OS; [5]
  Growth Rate: 0
U2OS; [10]
  Growth Rate: 1
HEK-293T; [1]
  Growth Rate: 0
HEK-293T; [2]
  Growth Rate: 1
HEK-293T; [7]
  Growth Rate: 0
HEK-293T; [3]
  Growth Rate: 1
HEK-293T; [8]
  Growth Rate: 0
HEK-293T; [4]
  Growth Rate: 0
HEK-293T; [5]
  Growth Rate: 0

## CN(c1ccnc(CNc2nc(Nc3ccc4c(c3)CC(=O)N4)ncc2C(F)(F)F)n1)S(C)(=O)=O [PF-00911705]
Fibroblast; [1]
  Growth Rate: 0
Fibroblast; [7]
  Growth Rate: 0
Fibroblast; [3]
  Growth Rate: 1
Fibroblast; [8]
  Growth Rate: 0
Fibroblast; [4]
  Growth Rate: 0
Fibroblast; [5]
  Growth Rate: 1
Fibroblast; [10]
  Growth Rate: 0
U2OS; [6]
  Growth Rate: 0
U2OS; [2]
  Growth Rate: 0
U2OS; [3]
  Growth Rate: 0
U2OS; [4]
  Growth Rate: 0
U2OS; [5]
  Growth Rate: 0
HEK-293T; [2]
  Growth Rate: 0
HEK-293T; [3]
  Growth Rate: 0
HEK-293T; [4]
  Growth Rate: 0
HEK-293T; [5]
  Growth Rate: 0

## COc1ccc2cc(OCC3(C(=O)O)CN(C(=O)c4ccc(F)cc4)C3)ccc2c1 [PF-04418948]
Fibroblast; [1]
  Growth Rate: 0
Fibroblast; [2]
  Growth Rate: 0
Fibroblast; [7]
  Growth Rate: 1
Fibroblast; [3]
  Growth Rate: 0
Fibroblast; [4]
  Growth Rate: 0
Fibroblast; [9]
  Growth Rate: 1
Fibroblast; [5]
  Growth Rate: 0
Fibroblast; [10]
  Growth Rate: 1
U2OS; [1]
  Growth Rate: 0
U2OS; [7]
  Growth Rate: 0
U2OS; [3]
  Growth Rate: 1
U2OS; [8]
  Growth Rate: 0
U2OS; [4]
  Growth Rate: 1
U2OS; [9]
  Growth Rate: 0
U2OS; [5]
  Growth Rate: 1
U2OS; [10]
  Growth Rate: 0
HEK-293T; [1]
  Growth Rate: 0
HEK-293T; [2]
  Growth Rate: 1
HEK-293T; [7]
  Growth Rate: 0
HEK-293T; [3]
  Growth Rate: 1
HEK-293T; [4]
  Growth Rate: 1
HEK-293T; [9]
  Growth Rate: 0
HEK-293T; [5]
  Growth Rate: 1

## O=C(c1ccc(F)cc1)N1CC(COc2ccc(Br)cc2)(C(=O)O)C1 [PF-04475866]
Fibroblast; [1]
  Growth Rate: 0
Fibroblast; [9]
  Growth Rate: 1
Fibroblast; [5]
  Growth Rate: 1
U2OS; [1]
  Growth Rate: 1
U2OS; [6]
  Growth Rate: 0
U2OS; [2]
  Growth Rate: 1
U2OS; [3]
  Growth Rate: 1
U2OS; [4]
  Growth Rate: 0
U2OS; [9]
  Growth Rate: 1
U2OS; [5]
  Growth Rate: 1
HEK-293T; [1]
  Growth Rate: 0
HEK-293T; [2]
  Growth Rate: 1
HEK-293T; [7]
  Growth Rate: 0
HEK-293T; [3]
  Growth Rate: 1
HEK-293T; [8]
  Growth Rate: 0
HEK-293T; [4]
  Growth Rate: 0
HEK-293T; [5]
  Growth Rate: 1
HEK-293T; [10]
  Growth Rate: 0

## C[C@H](c1ccc(F)cc1)N(Cc1ccc(Cl)c(C(=O)O)c1)C(=O)c1cnc2ccccc2c1 [PF-05257137]
Fibroblast; [1]
  Growth Rate: 0
Fibroblast; [7]
  Growth Rate: 0
Fibroblast; [8]
  Growth Rate: 1
Fibroblast; [9]
  Growth Rate: 1
Fibroblast; [5]
  Growth Rate: 1
U2OS; [1]
  Growth Rate: 0
U2OS; [3]
  Growth Rate: 1
U2OS; [4]
  Growth Rate: 1
U2OS; [5]
  Growth Rate: 1
HEK-293T; [1]
  Growth Rate: 1
HEK-293T; [6]
  Growth Rate: 0
HEK-293T; [2]
  Growth Rate: 0
HEK-293T; [3]
  Growth Rate: 0
HEK-293T; [4]
  Growth Rate: 0
HEK-293T; [5]
  Growth Rate: 1
HEK-293T; [10]
  Growth Rate: 0

Reference: ChEMBL document CHEMBL4689842, “EUbOPEN Chemogenomics Library wave 1” (2021)
